Measured values published in US20080033026A1, “Antimicrobial compositions, methods and systems” (priority 2006, published 2008).

How the values were obtained:
[1] = tested on: Candida albicans (ATCC 10231); assay: Time-kill determination; assay type: cell-based
Description: (§1) The assessment of efficacy of 9-decenoic acid against a spectrum of microorganisms was determined using the American Society for Testing and Materials (ASTM) procedure entitled “Standard Test Method for the Assessment of Microbiocidal Activity of Test Materials Using a Time-Kill Procedure,” October 1998. This procedure incorporates the recommendations described in the “Manual of Clinical Microbiology,” 5th ed., edited by A. B. Balows et al., ASM, Washington, and is directed by the Federal Register, June 1994.
(§2) Challenge organisms were prepared as follows. Cultures of the following organisms were obtained: Staphylococcus aureus (ATCC 6538), Pseudomonas aeruginosa (ATCC 15442), Staphylococcus epidermidis (ATCC 12228), Klebsiella pneumoniae (ATCC 4352), Escherichia coli 0157:H7 (ATCC 43895) and Candida albicans (ATCC 10231). The stock cultures were transferred to sterile tubes and sterile tryptic soy broth (TSB) was added to the cultures. The mixture was incubated for 18-24 hours at 37° C. (±2° C.). A portion of this culture was then transferred onto TSA plates and incubated for 18-24 hours at 37° C. (±2° C.). The plates were removed from incubation and the bacterial growth was washed from the agar surface using Butterfield's Phosphate Buffered Dilution Water (PBDW).
(§3) The bacterial suspension was adjusted to contain approximately 10^8 Colony Forming Units (CFU) per ml with PBDW. The concentration was adjusted to an optical density (OD) of 0.4-0.5 (versus a PBDW blank) at 620 nm in a UV-Vis spectrophotometer, and this optical density gave approximately 10^8 colony forming units per milliliter (cfu/ml). The standardized suspension was stored under appropriate conditions until it was used as the challenge inoculum.
(§4) Concentrated 9-decenoic acid (97%) was diluted in filter sterilized isopropanol to yield a 25,000 ppm stock solution. Subsequent dilutions to the 9-decenoic acid stock solutions were made with sterile Deionized Water (DI) to achieve concentrations of 0.1%, 0.05%, 0.01% and 0.001%. The pH was determined for each dilution; pH values ranged from 4.4-4.1. Additionally, 9-decenoic acid stock solution was adjusted to pH 7 with 1 N NaOH and serially diluted with sterile DI to achieve concentrations of 1%, 0.5%, 0.2%, 0.1%, 0.05% and 0.0025%. In addition, 9-decenoic acid stock solution was combined with Triclosan™ (obtained from Ciba Specialty Chemical Corporation, under the tradename Irgasan DP 300™) in various ratios, as indicated in Table 8. The pH of the combined solution was 7.
(§5) Compliant with the ASTM procedure cited, for each challenge microorganism a 9.9 ml aliquot of the prepared 9-decenoic acid suspension was added to a sterile tube. A 0.1 ml aliquot of the standardized inoculum was added to the 9-decenoic acid solution representing the start of the test exposure. The inoculated 9-decenoic acid solution was immediately mixed thoroughly. The inoculated suspension was held at room temperature for 0.5, 2, 5, 7 and 10-minute exposure times for tests run at pH level of approximately 4. The pH 7 tests were held at room temperature for 0.5 and 2 minutes.
(§6) At each exposure sample time, a 1.0 ml aliquot of the inoculated 9-decenoic acid suspension was transferred to 9.0 ml of D/E Neutralizing Broth. Additional ten-fold serial dilutions were made in PBDW and plated in duplicate on TSA. All plates were incubated for 48 hours at 37° C. (±2° C.) and visually examined for growth. The plates were enumerated, recorded and log kill determined for each time point.
(§7) The following study controls were conducted: culture purity, neutralizer sterility, initial suspension population, test population, neutralization verification and a negative control using isopropanol. Culture purity was verified by performing a streak plate for isolated colonies of each culture used. All cultures were determined to be pure based on consistent colony morphology typical for the test organism. The neutralizer sterility was confirmed by no growth in an incubated sample. […]

[2] = tested on: Pseudomonas aeruginosa (ATCC 15442); assay: Time-kill determination; assay type: cell-based
Description: as §1, §2, §3, §4, §5, §6, §7

[3] = 0.01% 9-decenoic acid, pH 4.4, exposure 0.5 min
[4] = 0.01% 9-decenoic acid, pH 4.4, exposure 2 min
[5] = 0.01% 9-decenoic acid, pH 4.4, exposure 5 min
[6] = 0.01% 9-decenoic acid, pH 4.4, exposure 7 min
[7] = 0.01% 9-decenoic acid, pH 4.4, exposure 10 min
[8] = 0.05% 9-decenoic acid, pH 4.1, exposure 0.5 min
[9] = 0.05% 9-decenoic acid, pH 4.1, exposure 2 min
[10] = 0.05% 9-decenoic acid, pH 4.1, exposure 5 min
[11] = 0.05% 9-decenoic acid, pH 4.1, exposure 7 min
[12] = 0.05% 9-decenoic acid, pH 4.1, exposure 10 min
[13] = 0.1% 9-decenoic acid, pH 4.1, exposure 0.5 min
[14] = 0.1% 9-decenoic acid, pH 4.1, exposure 2 min
[15] = 0.1% 9-decenoic acid, pH 4.1, exposure 5 min
[16] = 0.1% 9-decenoic acid, pH 4.1, exposure 7 min
[17] = 0.1% 9-decenoic acid, pH 4.1, exposure 10 min

For C=CCCCCCCCC(=O)O [9-decenoic acid], the Log reduction [1, 3] was 1.0 log, the Log reduction [1, 4] was 2.9 log and the Log reduction [1, 5] was >6.7 log. For the same compound, the Log reduction [1, 6] was >6.7 log, the Log reduction [1, 7] was >6.7 log and the Log reduction [1, 8] was >6.7 log. The Log reduction [1, 9] was >6.7 log, the Log reduction [1, 10] was >6.7 log and the Log reduction [1, 11] was >6.7 log. The Log reduction [1, 12] was >6.7 log, the Log reduction [1, 13] was >6.7 log and the Log reduction [1, 14] was >6.7 log. The Log reduction [1, 15] was >6.7 log, the Log reduction [1, 16] was >6.7 log and the Log reduction [1, 17] was >6.7 log. For the same compound, the Log reduction [2, 3] was >6.1 log, the Log reduction [2, 4] was >6.1 log and the Log reduction [2, 5] was >6.1 log. For the same compound, the Log reduction [2, 6] was >6.1 log, the Log reduction [2, 7] was >6.1 log and the Log reduction [2, 8] was >6.1 log. For the same compound, the Log reduction [2, 9] was >6.1 log, the Log reduction [2, 10] was >6.1 log and the Log reduction [2, 11] was >6.1 log. The Log reduction [2, 12] was >6.1 log, the Log reduction [2, 13] was >6.1 log and the Log reduction [2, 14] was >6.1 log. The Log reduction [2, 15] was >6.1 log, the Log reduction [2, 16] was >6.1 log and the Log reduction [2, 17] was >6.1 log.
